We go through 30 compounds from patent US8895585B2, “Nicotinamide derivative or salt thereof” (FUJIFILM Corporation, priority 2010, dated 2014).

A value given as a limit tells only on which side of the number the result lay.

One test deals with T1, glutathione S-transferase (GST)-fused full-length human Syk protein (Homo sapiens, UniProt P43405).
T1 construct: (GST)-fused full-length human Syk protein; GST (glutathione S-transferase); purchased Carna Biosciences
Nature of the test: Syk enzyme assay. Format: biochemical. As to conditions: Syk enzyme assay, Test Example 1; read-out: IC50 of Syk-inhibitory activity. The procedure, abridged: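 GST-tagged full-length human Syk (baculovirus) preincubated with compound 15 min at room temperature (pH 7.0, 10 mM MgCl2), then reacted 40 min with 0.4 μM biotinylated peptide substrate and 27 μM ATP (final). Phosphorylation read by HTRF (615/665 nm) after EDTA stop; IC50 reported.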
A word on the IC50: it is the concentration at which inhibition is half-maximal. Regarding `C[C@H](N)[C@@H](CC1CC1)Nc1nc(Nc2ccc3c(F)nn(C4CC4)c3c2)c(C(N)=O)cc1F` [Example 006-481, 6-(((2R,3S)-3-amino-1-cyclopropylbutan-2-yl)amino)-2-((1-cyclopropyl-3-fluoro-1H-indazol-6-yl)amino)-5-fluoronicotinamide], the concentration for half-maximal inhibition (IC50) fell in the range of 0.1 to 1 µM.
Same read-out and setting: the figure for `NC(=O)c1cc(F)c(N[C@@H]2CCCC[C@@H]2N)nc1Nc1cnc(N2CCOCC2)c(C2CC2)c1` [Example 006-528, 6-(((1R,2S)-2-aminocyclohexyl)amino)-2-((5-cyclopropyl-6-morpholinopyridin-3-yl)amino)-5-fluoronicotinamide] is 0.01 to 0.05 µM.
The same measure, in the same setting: to `NC(=O)c1cc(F)c(NC2CCCCC2N)nc1Nc1ccc(NCCO)nc1` (stereo not drawn) [Example 002-075] belongs 0.01 to 0.05 µM; to `CCC[C@@H](Nc1nc(Nc2ccc3c(cnn3CC(F)F)c2)c(C(N)=O)cc1F)[C@H](C)N` [Example 006-424, 6-(((2S,3R)-2-aminohexan-3-yl)amino)-2-((1-(2,2-difluoroethyl)-1H-indazol-5-yl)amino)-5-fluoronicotinamide], 0.01 to 0.05 µM; to `Cc1ncc(Nc2nc(NC3CCCCC3N)c(F)cc2C(N)=O)cc1-n1cncn1` (stereo not drawn) [Example 002-138], 0.05 to 0.1 µM.
Still for that read-out and setting: the figure for `CCCOc1ccc2cc(Nc3nc(N[C@@H]4CCCC[C@@H]4N)c(F)cc3C(N)=O)cnc2c1` (relative stereo) [Example 004-174, 6-(cis-2-aminocyclohexylamino)-5-fluoro-2-((7-propoxyquinolin-3-yl)amino)nicotinamide] is less than 0.01 µM; for `COc1ncc(Nc2nc(NC3CCCCC3N)c(F)cc2C(N)=O)cc1Cl` (stereo not drawn) [Example 002-203] it is 0.01 to 0.05 µM.
In the case of `COc1cc(Nc2nc(NC(C)(C)C(N)=O)c(F)cc2C(N)=O)cc(OC)c1` [Example 033-002], the IC50 is 0.1 to 1 µM.
As to `COCCOc1cc(Nc2nc(N[C@@H]3CCCC[C@@H]3N)c(F)cc2C(N)=O)cc2cccnc12` (relative stereo) [Example 004-139, 6-(cis-2-aminocyclohexylamino)-5-fluoro-2-((8-(2-methoxyethoxy)quinolin-6-yl)amino)-nicotinamide], the IC50 was less than 0.01 µM.
On the same count and under the same terms, to `NC(=O)c1cc(F)c(NC2CCCCC2N)nc1Nc1cncc(NC(=O)c2ccc3sccc3c2)c1` (stereo not drawn) [Example 027-038] belongs 0.01 to 0.05 µM; to `NC(=O)c1cc(F)c(NC2CCCCC2N)nc1Nc1cncc(NC(=O)c2ccc(Cl)cc2Cl)c1` (stereo not drawn) [Example 027-018], 0.05 to 0.1 µM; to `Cc1cc(Nc2nc(NC3CCCCC3N)c(F)cc2C(N)=O)cc(C)n1` (stereo not drawn) [Example 002-022], 0.01 to 0.05 µM.
As for `Cn1ccc2cc(-c3cncc(Nc4nc(N[C@@H]5CCCC[C@@H]5N)c(F)cc4C(N)=O)c3)ccc21` (relative stereo) [Example 006-091, 6-((cis-2-aminocyclohexyl)amino)-5-fluoro-2-((5-(1-methyl-1H-indol-5-yl)pyridin-3-yl)amino)nicotinamide], the IC50 is 0.01 to 0.05 µM.
With `NC(=O)c1cc(F)c(N[C@@H]2CCCC[C@@H]2N)nc1Nc1ccc(N2CC3(COC3)C2)nc1` [Example 006-467, 2-((6-(2-oxa-6-azaspiro[3.3]heptane-6-yl)pyridin-3-yl)amino)-6-(((1R,2S)-2-aminocyclohexyl)amino)-5-fluoronicotinamide], the half-maximal inhibitory concentration (IC50) lay within 0.01 to 0.05 µM.
In the case of `NC(=O)c1cc(F)c(NC2CCCCC2N)nc1Nc1cncc(NC(=O)c2ccc(OC(F)(F)F)cc2)c1` (stereo not drawn) [Example 027-016], the half-inhibitory concentration (IC50) lay within 0.1 to 1 µM.
Consider `NC(=O)c1cc(F)c(NC2CCCCC2N)nc1Nc1ccnc(-c2ccc3ccncc3c2)c1` (stereo not drawn) [Example 002-194], for which the IC50 was less than 0.01 µM.
On to `CNC(=O)c1cncc(Nc2nc(N[C@@H]3CCCC[C@@H]3N)c(F)cc2C(N)=O)c1` [Example 004-010], for which the IC50 lay within 0.01 to 0.05 µM.
On to `COC(C)CCOc1ncc(Nc2nc(N[C@@H]3CCCC[C@@H]3N)c(F)cc2C(N)=O)c2ccccc12` (relative stereo) [Example 004-151, 6-(cis-2-aminocyclohexylamino)-5-fluoro-2-((1-(3-methoxybutoxy)isoquinolin-4-yl)amino)-nicotinamide], for which the half-maximal inhibitory concentration (IC50) is 0.1 to 1 µM.
For `NC(=O)c1cc(F)c(NC2CCCC2N)nc1Nc1ccc2ncccc2c1` (stereo not drawn) [Example 006-175, 6-((cis-2-aminocyclopentyl)amino)-5-fluoro-2-(quinolin-6-yl)amino)nicotinamide], the IC50 lay within 0.01 to 0.05 µM.
As for `Cc1ncc(Nc2nc(NC3CCCCC3N)c(F)cc2C(N)=O)cc1-n1cccn1` (stereo not drawn) [Example 002-135], the IC50 was in the range of 0.01 to 0.05 µM.
For the compound `NC(=O)c1cc(F)c(NC2CCCCC2N)nc1Nc1cncc(NC(=O)c2cccc(Cl)c2)c1` (stereo not drawn) [Example 027-008], the IC50 was in the range of 0.01 to 0.05 µM.
Regarding `COCC(C)Oc1ncc(Nc2nc(N[C@@H]3CCCC[C@@H]3N)c(F)cc2C(N)=O)c2ccccc12` (relative stereo) [Example 004-154, 6-(cis-2-aminocyclohexylamino)-5-fluoro-2-((1-((1-methoxypropan-2-yl)oxy)isoquinolin-4-yl)amino)nicotinamide], the IC50 was in the range of 0.1 to 1 µM.
`CC(C)C[C@H](CN)Nc1nc(Nc2cccc3cccnc23)c(C(N)=O)cc1F` [Example 006-230, (R)-6-((1-amino-4-methylpentan-2-yl)amino)-5-fluoro-2-((quinolin-8-yl)amino)nicotinamide]: the IC50 fell in the range of 0.01 to 0.05 µM.
Same read-out and setting: to `NC(=O)c1cc(F)c(N[C@@H]2CCCC[C@@H]2N)nc1Nc1ccc2[nH]c(C(=O)NCc3ccccc3)cc2c1` (relative stereo) [Example 029-018, 5-((6-(cis-2-aminocyclohexylamino)-3-carbamoyl-5-fluoropyridin-2-yl)amino)-N-benzyl-1H-indole-2-carboxamide] belongs less than 0.01 µM; to `C[C@H](N)[C@@H](CC1CC1)Nc1nc(Nc2ccc3nccnc3c2)c(C(N)=O)cc1F` [Example 006-347, 6-(((2R,3S)-3-amino-1-cyclopropylbutan-2-yl)amino)-5-fluoro-2-((quinoxalin-6-yl)amino)nicotinamide], 0.01 to 0.05 µM.
Still for that read-out and setting: to `NC(=O)c1cc(F)c(N[C@@H]2CCCC[C@@H]2N)nc1Nc1cc(F)cc2c1ccn2CCN1CCOCC1` (relative stereo) [Example 004-083, 6-(cis-2-aminocyclohexylamino)-5-fluoro-2-((6-fluoro-1-(2-morpholinoethyl)-1H-indol-4-yl)amino)nicotinamide] belongs less than 0.01 µM.
Still for that read-out and setting: to `NC(=O)c1cc(F)c(NC2CCCCC2N)nc1Nc1cncc(NC(=O)c2cccs2)c1` (stereo not drawn) [Example 027-031] belongs less than 0.01 µM.

The same test, now with this note: read-out: Syk-inhibitory activity (IC50).
`NC(=O)c1cc(Nc2nc(N[C@@H]3CCCC[C@@H]3N)c(F)cc2C(N)=O)ccn1` (relative stereo) [Example 29-12, 4-((3-aminocarbonyl-6-(cis-2-aminocyclohexylamino)-5-fluoropyridin-2-yl)amino)pyridin-2-carboxamide]: the half-inhibitory concentration (IC50) was not above 1 µM.
Take `NC(=O)c1cc(F)c(N[C@@H]2CCCC[C@@H]2N)nc1Nc1cccc2nsnc12` (relative stereo) [Example 6-68, 6-(cis-2-aminocyclohexylamino)-2-(benzo[c][1,2,5]thiadiazol-4-ylamino)-5-fluoronicotinamide]: the IC50 was not above 1 µM.
`NC(=O)c1cc(F)c(N[C@H](Cc2ccccc2)C(N)=O)nc1Nc1cnc2ccccc2c1` [Example 12-25]: the IC50 was not above 1 µM.
